EPA's ToxValDB 9.5
Values after ≈ are worked out from the molar mass of the structure shown. One block for each compound: values may come before it.

How the values were obtained:
[1] = tested on: Canidae; conditions: for NOAEL: oral
[2] = tested on: Oryctolagus sp.
[3] = tested on: Sus scrofa; conditions: short-term, oral, diet, Not specified
[4] = tested on: Rattus norvegicus; conditions: for LD50: mortality
[5] = tested on: Colinus virginianus; conditions: for LD50: acute, oral, mortality
[6] = tested on: Oncorhynchus mykiss; conditions: acute; duration: 96 hours; mortality
[7] = tested on: Homo sapiens; conditions: clinical
[8] = for NOAEL: subchronic, duration: 90 days
[9] = tested on: Gallus gallus; conditions: for LEL: subchronic, oral, diet, no effects
[10] = tested on: Pontoscolex corethrurus; conditions: acute
[11] = tested on: Anas platyrhynchos; conditions: short-term; duration: 5 days; oral; feed; mortality
[12] = tested on: Bovidae; conditions: short-term; duration: 28 days; no effects
[13] = tested on: Bibionidae; conditions: chronic/long-term; other
[14] = tested on: Danio rerio; conditions: acute; mortality
[15] = tested on: Mus musculus; conditions: repeat dose other
[16] = chronic, duration: 1 years, Dog Other, clinical chemistry
[17] = reproduction developmental, reproduction

SMILES: CC1=NNC(=O)N(/N=C/c2cccnc2)C1 [Pymetrozine]
NOAEL [1, 16]: 0.57 mg/kg-day
NOAEL ([1]; subchronic, duration: 90 days, diet, Beagle, organ weight): 3 mg/kg-day
NOAEL ([2]; reproduction developmental, histopathology: nonneoplastic): 10 mg/kg-day

SMILES: CC1=C[C@H]2O[C@@H]3[C@H](O)C[C@](C)([C@@]2(CO)[C@H](O)C1=O)[C@@]31CO1 [Vomitoxin]
LOEL ([3]; duration: 21 days, food consumption): 0.35 mg/kg-day

SMILES: CBr [Methyl bromide]
LD50 ([4]; acute, oral): 104 mg/kg
NOAEL [4, 17]: 90 mg/kg-day
NOAEL ([1]; chronic, duration: 1 years, Dog Other): 0.27 mg/kg-day
NOAEL [1, 16]: 0.13 mg/kg-day
LD50 [5]: 73 mg/kg
LC50 [6]: 3.9 µg/mL

SMILES: CN1CCC[C@H]1c1cccnc1 [(-)-Nicotine]
LOAEL ([7]; injection, intravenous, clinical signs): 0.0035 mg/kg-day

SMILES: CC(=O)C(C)Sc1ccoc1C (centres undefined) [3-[(2-Methylfuran-3-yl)sulfanyl]butan-2-one]
NOAEL ([4]; subchronic, duration: 90 days, oral, diet): 3.76 mg/kg-day
NOAEL [8]: 3.76 mg/kg-day

LEL ([9]; duration: 56 days, F): 80 mg/kg-day
SMILES: CCOC(=O)/C(C)=C/C=C/C(C)=C/C=C/C=C(C)/C=C/C=C(C)/C=C/C1=C(C)CCCC1(C)C [8'-Apo-beta, psi-carotenoid acid, ethyl ester]
NOAEL ([4]; subchronic, histopathology: nonneoplastic): 3 mg/kg-day

SMILES: NC(=O)c1ccc[n+]([C@@H]2O[C@H](CO)[C@@H](O)[C@H]2O)c1.[Cl-] [Nicotinamide riboside chloride]
NOAEL ([4]; developmental, duration: 15 days, oral, gavage, F, Sprague-Dawley, development): 325 mg/kg-day
NOAEL ([4]; subchronic, duration: 90 days, oral, gavage, M/F, Sprague-Dawley, body weight): 300 mg/kg-day
NOAEL ([1]; short-term, duration: 28 days, gavage, M/F, Beagle, clinical chemistry): 300 mg/kg-day

SMILES: CC(C)C [Isobutane]
NOAEC [8, 17]: 7.12 mg/m3

SMILES: OC[C@@H](O)[C@@H](O)CO [Erythritol]
NOAEL ([7]; duration: 27 months, oral, drinking water, clinical signs): 710 mg/kg-day

SMILES: CCc1nccnc1CC [2,3-Diethylpyrazine]
LC50 ([10]; mortality): 236 mg/kg

SMILES: CCN(CC)c1nc(C)cc(OP(=S)(OC)OC)n1 [Pirimiphos-methyl]
NOAEL ([4]; acute, clinical signs): 15 mg/kg-day
NOAEL ([4]; chronic, duration: 2 years, clinical signs): 0.4 mg/kg-day
NOAEL ([4]; subchronic, duration: 13 weeks, clinical signs): 2.1 mg/kg-day
LC50 [6]: 0.2 µg/mL (≈ 0.655 µM)

SMILES: CCCCCc1cc(O)c2c(c1)OC(C)(C)[C@@H]1CCC(C)=C[C@@H]21 [Tetrahydrocannabinol]
LEL ([7]; duration: 12 weeks, oral, neurology): 2.5 mg/day
LOAEL (mg/person-day) ([7]; oral, capsule, other): 2.5

SMILES: CSCSSC [2,3,5-Trithiahexane]
NOEL ([4]; subchronic, duration: 13 weeks, oral, diet): 0.3 mg/kg-day
NOAEL ([4]; subchronic, duration: 90 days, oral): 0.23 mg/kg-day
NOAEL ([8]; oral): 0.23 mg/kg-day

SMILES: NC(Cc1ncn[nH]1)C(=O)O (centres undefined) [1,2,4-Triazole-3-alanine]
LD50 ([4]; acute, oral): > 5000 mg/kg-day
NOAEL ([4]; chronic): 100 mg/kg-day
NOAEL ([4]; developmental, development): 100 mg/kg-day
LC50 [11]: > 1340 mg/kg-day
NOAEL ([2]; developmental, development): 30 mg/kg-day

SMILES: NC=O [Formamide]
NOAEL ([2]; reproduction developmental, duration: 13 days, oral, gavage, F, New Zealand, reproduction): 34 mg/kg-day

SMILES: CCc1nccnc1C(C)=O [1-(3-Ethylpyrazinyl)ethan-1-one]
LC50 ([10]; mortality): 360 mg/kg

SMILES: Cl.N/C(=N\N=C\c1ccc(Cl)cc1)N/N=C/c1ccc(Cl)cc1 [Robenidine hydrochloride]
LEL ([3]; duration: 28 days, no effects): 120 mg/kg-day
LEL [12]: 60 mg/kg-day
LC50 ([10]; duration: 14 days, body weight): > 1000 mg/kg
NOEC ([8]; repeat dose other, other): > 1.8 mg/kg-day
NOEL ([1]; subchronic, duration: 90 days, Dog Other, organ weight): 7.5 mg/kg-day
NOEC [13]: 50 mg/kg
LEL ([9]; duration: 9 weeks, M/F): 225 mg/kg-day
LEL ([9]; duration: 35 days, M/F, Chicken): 82.5 mg/kg-day
LC50 [14]: 0.036 µg/mL
NOAEL ([2]; reproduction developmental, duration: 84 days, oral, diet, New Zealand, reproduction): 11 mg/kg-day
LEL ([2]; subchronic, duration: 48 days, oral, diet, no effects): 500 mg/kg-day

SMILES: CC1=C[C@H]2O[C@@H]3[C@H](O)[C@@H](O)[C@](C)([C@@]2(CO)[C@H](O)C1=O)[C@]31CO1 [Nivalenol]
LOAEL ([9]; repeat dose other, organ weight): 0.36 mg/kg-day

SMILES: C=C(C)[C@H]1CC=C(C)CC1 [D-Limonene]
NOAEL ([15]; gross pathology): 250 mg/kg-day
NOAEL ([15]; injection, intraperitoneal): 215 mg/kg-day
NOAEL ([4]; repeat dose other, histopathology: nonneoplastic): 250 mg/kg-day

SMILES: Cc1cc(SC(=O)CC(C)C)c(C)o1 [2,5-Dimethyl-3-thioisovalerylfuran]
NOAEL ([4]; subchronic, duration: 90 days): 0.73 mg/kg-day
NOAEL [8]: 0.73 mg/kg-day

SMILES: Fc1ccc([C@@]2(Cn3cncn3)O[C@@H]2c2ccccc2Cl)cc1 [Epoxiconazole]
LD50 ([4]; acute): 3160 mg/kg
NOAEL ([4]; reproduction developmental): 2.3 mg/kg-day
LD50 ([5]; diet): > 907 mg/kg
LD50 [5]: > 2000 mg/kg
NOEL ([5]; reproduction developmental): 1 mg/kg-day
